From patent US20060252827A1, “Therapeutic use of acyglycerols and the nitrogen-and sulphur-containing analogues thereof” (priority 2003, published 2006)

What was measured:
LDL = LDL oxidation by copper, conjugated diene formation (OD 234 nm); assay type: biochemical; conditions: for decrease in the maximum amount of conjugated dienes formed: copper alone 496 nmol per mg of LDL, FIG. 2c; for rate of conjugated diene formation (LDL oxidation rate): copper alone 3, FIG. 2b; for increase in the lag phase: relative to copper alone; for increase in the lag phase / lag phase for conjugated diene formation: FIG. 2a; for lag phase for conjugated diene formation: copper alone 104 minutes
Procedure: LDL were prepared as described in Lebeau et al. (Lebeau, Furman et al. 2000). The solutions of the test compounds were prepared at 10^−2 M in ethanol and diluted in PBS so that the final concentration ranged from 0.1 to 100 μM with a total ethanol concentration of 1% (V/V).
Before oxidation, EDTA was removed from the LDL preparation by dialysis. The oxidation reaction was then carried out at 30° C. by adding 100 μl of 16.6 μM CuSO4 or 2 mM MPH to 800 μl of LDL (125 μg protein/ml) and 100 μl of a test compound solution. The formation of dienes, the species to be followed, was measured by the optical density at 234 nm in the samples treated with the compounds in the presence or absence of copper (or MPH). Optical density at 234 nm was measured every 10 minutes for 8 hours on a thermostated spectrophotometer (Kontron Uvikon 930). The analyses were carried out in triplicate. A compound was considered to have antioxidant activity when it shifted the lag phase latency relative to the control sample. […] FIG. 2 presents an example of the results obtained with the inventive compounds.

[1] = target: T1, hPPARα (Gal4/PPARα chimera) (Homo sapiens, UniProt Q07869); assay: Gal4/PPARα transactivation system in HepG2 cells (luciferase); assay type: cell-based; conditions: HepG2, 24 h, PC liposomes, FIG. 3
T1 construct: expressed in transfected cells; host or cells: HepG2
T1 sequence (Q07869 239-466 limits assumed): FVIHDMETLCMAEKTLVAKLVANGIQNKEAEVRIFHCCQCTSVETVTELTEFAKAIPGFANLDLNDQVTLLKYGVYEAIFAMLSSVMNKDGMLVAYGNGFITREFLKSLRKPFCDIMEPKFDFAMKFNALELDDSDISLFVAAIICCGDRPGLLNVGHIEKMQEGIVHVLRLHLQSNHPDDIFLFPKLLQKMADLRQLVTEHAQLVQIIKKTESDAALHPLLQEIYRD
Procedure: PPAR activation was tested in vitro in RK13 fibroblast cell lines or in a […] line HepG2 by measuring the transcriptional activity of chimeras composed of the DNA binding domain of the yeast gal4 transcription factor and the ligand binding domain of the different PPARs. The example below is given for HepG2 cells.
HepG2 cells were from ECACC (Porton Down, UK) and were grown in DMEM medium supplemented with 10% (V/V) fetal calf serum, 100 U/ml penicillin (Gibco, Paisley, UK) and 2 mM L-glutamine (Gibco, Paisley, UK). The culture medium was changed every two days. Cells were kept at 37° C. in a humidified 95% air/5% CO2 atmosphere.
The plasmids pG5TkpGL3, pRL-CMV, pGal4-hPPARα, pGal4-hPPARγ and pGal4-f have been described by Raspe et al. (Raspe, Madsen et al. 1999). The pGal4-mPPARα and pGal4-hPPARβ constructs were obtained by cloning PCR-amplified DNA fragments corresponding to the DEF domains of the mouse PPARα and human PPARβ nuclear receptors, respectively, into the pGal4-f vector.
HepG2 cells were seeded in 24-well culture dishes at 5×10^4 cells/well and transfected for 2 hours with the reporter plasmid pG5TkpGL3 (50 ng/well), the expression vectors pGal4-f, pGal4-mPPARα, pGal4-hPPARα, pGal4-hPPARγ, pGal4-hPPAβ (100 ng/well) and the transfection efficiency control vector pRL-CMV (1 ng/well) according to the previously described protocol (Raspe, Madsen et al. 1999), then incubated for 36 hours with the test compounds. At the end of the experiment, the cells were lysed (Gibco, Paisley, UK) and luciferase activity was determined with a Dual-Luciferase™ Reporter Assay System kit (Promega, Madison, Wis., USA) according to the supplier's instructions. The protein content of the cell extracts was then measured with the Bio-Rad Protein Assay (Bio-Rad, Munich, Germany) as directed by the supplier.
FIG. 3: HepG2 cells transfected with Gal4/PPARα plasmids were incubated with different concentrations of inventive compounds (5, 15, 50 and 100 μM) for 24 h and with different concentrations of the vehicle (PC). The results are expressed as the induction factor (luminescent signal relative to untreated cells) after the different treatments. […] The induction factors for compound Ex 4p were 35 at 100 μM, 44 at 50 μM, 36 at 15 μM and 24 at 5 μM. In contrast, when the cells were incubated with the vehicle (PC liposome), no significant induction was observed.

[2] = test system: ischemia induced by occlusion of the middle cerebral artery; assay: Cerebral ischemia-reperfusion model, prophylactic treatment, brain infarct volume; assay type: in vivo, Wistar rats
Procedure: (§1) Wistar rats weighing 200 to 350 g were used for this experiment. Animals were treated by gavage with the inventive compounds (600 mg/kg/day) in suspension in the vehicle (0.5% carboxycellulose (CMC) and 0.1% Tween) or with the vehicle alone, for 14 days before ischemia induction by occlusion of the middle cerebral artery. Animals were anesthetized by intraperitoneal injection of 300 mg/kg chloral hydrate. A rectal probe was inserted and body temperature was maintained at 37° C.±0.5° C. Blood pressure was monitored throughout the experiment. Under a surgical microscope, the right carotid artery was exposed by a median incision in the neck. The pterygopalatine artery was ligated at its origin and an arteriotomy was fashioned in the external carotid artery so as to insert a nylon monofilament, which was gently advanced to the common carotid artery and then into the internal carotid artery so as to occlude the origin of the middle cerebral artery. The filament was withdrawn one hour later to allow reperfusion. Twenty-four hours after reperfusion, animals previously treated or not with the inventive compounds were euthanized by pentobarbital overdose. Brains were rapidly frozen and sliced. Sections were stained with cresyl violet. Unstained zones of the brain sections were considered to be damaged by the infarct. Areas (of the infarct and the two hemispheres) were measured and the volume of the infarct and the two hemispheres was calculated and the corrected infarct volume was determined by the following formula: (corrected infarct volume=infarct volume−(volume of right hemisphere−volume of left hemisphere)) to compensate for cerebral oedema.

[3] = test system: ischemia induced by occlusion of the middle cerebral artery; assay: Cerebral ischemia-reperfusion model, curative or acute phase treatment, brain infarct volume; assay type: in vivo, Wistar rats
Procedure: as §1, with “Animals such as those described previously” for “Wistar rats weighing 200 to 350 g”, “experiment.” for “experiment. Animals were treated by gavage with the inventive compounds (600 mg/kg/day) in suspension in the vehicle (0.5% carboxycellulose (CMC) and 0.1% Tween) or with the vehicle alone, for 14 days before ischemia induction by occlusion of the middle cerebral artery.”, “Animals first subjected to ischemia-reperfusion were treated with the inventive compounds by the oral route (such as previously described in CMC+Tween vehicle) one or more times after reperfusion (600 mg/kg/day or 300 mg/kg/day bid). 24, 48 or 72” for “Twenty-four”, “the” for “the inventive”, “measured,” for “measured and”

[4] = prophylactic treatment, FIG. 4b

Row | induction factor (luminescent signal relative to untreated cells) ([1]; 5 μM) [fold] | induction factor (luminescent signal relative to untreated cells) ([1]; 15 μM) [fold] | induction factor (luminescent signal relative to untreated cells) ([1]; 50 μM) [fold] | induction factor (luminescent signal relative to untreated cells) ([1]; 100 μM) [fold] | Compound | decrease in the maximum amount of conjugated dienes formed (LDL; compound at 10^-4 M) [%] | rate of conjugated diene formation (LDL oxidation rate) (LDL; compound at 10^-4 M) | increase in the lag phase (LDL) [%] | effect on the LDL oxidation rate (in words) (LDL; FIG. 2b) | other results
1 |  |  |  |  | 1,3-dilinoleyl-2-tetradecylthioacetylglycerol [Ex 4h] | 24 | 2.5 nmol/min/mg of LDL | 43 |  | 
2 | 17 | 31 | 41 | 62 | CCCCCCCCCCCCCCSCC(=O)OCC(O)CO (stereo not drawn) [Ex 2a, 1-tetradecylthioacetylglycerol] |  |  | 67 | did not significantly alter | 
3 | 9 | 18 | 30 | 41 | CCCCCCCCCCCCCCSCC(=O)OCC(COC(=O)CSCCCCCCCCCCCCCC)OC(=O)CSCCCCCCCCCCCCCC [Ex 4a, 1,2,3-tritetradecylthioacetylglycerol] | 60 | 1 nmol/min/mg of LDL | 160 |  | decrease in the oxidation rate (LDL; compound at 10^-4 M, FIG. 2b): 66%; lag phase for conjugated diene formation (LDL; compound at 10^-4 M): 270 min; decrease in lesion size relative to control animals ([2]; oral, 300 mg/kg/day bid, 14 days before ischemia, FIG. 4a): 22%; corrected total infarct volume (lesion size) ([2]; oral, 300 mg/kg/day bid, 14 days before ischemia, controls 186 mm^3, FIG. 4a): 145 mm^3; decrease in lesions, cortical infarct (uncorrected infarct volume) [2, 4]: 22%; effect on striatal infarct (uncorrected infarct volume), in words [2, 4]: no significant decrease in lesions; lesions smaller than control animals ([3]; 600 mg/kg/day for 24 hours after ischemia, FIG. 4c): 27%; infarct volume ([3]; 600 mg/kg/day for 24 hours after ischemia, controls 180 mm^3, FIG. 4c): 132 mm^3; lesions smaller than control animals ([3]; 600 mg/kg/day for 72 hours after ischemia, FIG. 4e): 40%; corrected infarct volume ([3]; 600 mg/kg/day for 72 hours after ischemia, controls 180 mm^3, FIG. 4e): 110 mm^3; decrease in lesions, cortical infarct (uncorrected infarct volume) ([3]; acute phase 24 h, FIG. 4d): 25%; effect on striatal infarct (uncorrected infarct volume), in words ([3]; acute phase 24 h, FIG. 4d): no significant decrease in lesions; decrease in lesions, cortical infarct (uncorrected infarct volume) ([3]; acute phase 72 h, FIG. 4f): 32%; decrease in lesions, striatal infarct (uncorrected infarct volume) ([3]; acute phase 72 h, FIG. 4f): 23%
4 |  |  |  |  | CCCCCCCCCCCCCCCC(=O)OCC(COC(=O)CCCCCCCCCCCCCCC)OC(=O)CSCCCCCCCCCCCCCC [Ex 4g, 1,3-dipalmitoyl-2-tetradecylthioacetylglycerol] | 31 | 1.8 nmol/min/mg of LDL | 170 |  | lag phase for conjugated diene formation (LDL; compound at 10^-4 M): 282 min
5 |  |  |  |  | CCCCCCCCCCCCCCCC(=O)OC(COC(=O)CSCCCCCCCCCCCCCC)COC(=O)CSCCCCCCCCCCCCCC [Ex 4o, 1,3-ditetradecylthioacetyl-2-palmitoylglycerol] |  |  | 37 | did not significantly alter | 
6 | 24 | 36 | 44 | 35 | CCCCCCCCCCCCCCSCC(=O)OC(COC(C)=O)COC(C)=O [Ex 4p, 1,3-diacetyl-2-tetradecylthioacetylglycerol] |  |  |  |  | 
7 |  |  |  |  | CCCCCCCCCCCCCCSCC(=O)OC(COC(=O)CCCCCCC)COC(=O)CCCCCCC [Ex 4q, 1,3-dioctanoyl-2-tetradecylthioacetylglycerol] |  |  | 54 | did not significantly alter | 
